Laboratory results published in PMC9046991, “Preparation, Characterization, and Cytoprotective Effects on HUVECs of Fourteen Novel Angiotensin-I-Converting Enzyme Inhibitory Peptides From Protein Hydrolysate of Tuna Processing By-Products” (Frontiers in Nutrition, 2022).
Like-named read-outs stand apart in the source and are kept apart here. Where a SMILES comes first, the peptide text is derived from it.

What was measured:
ACE = conditions: cited from earlier work; for IC50: data in the AHTPDB database, read-out: IC50 (ACEi ability)
Text: Then, Ser residue, especially its hydroxyl group, should play a vital effect on the ACEi capability of STAP4, STAP7, and STAP11 ([67]). Yust et al. made clear that short peptide sequences ...

HUVECs [1] = test: NO production in HUVECs; assay type: cell-based, human; conditions: 24 h, mean ± SD
Text: NO and ET-1 productions in treated cells were obtained by employing human NO and ET-1 assay kits according to the manufacturers' protocol.

HUVECs [2] = test: HUVEC cell viability (MTT assay); assay type: cell-based, human
Protocol: After thawing, HUVECs were maintained in cultured flasks and cultured to confluence in DMEM containing 1% penicillin-streptomycin liquid, supplemented with 10% FBS. HUVECs received the culturing process at 37°C in a humidified 5% CO2 atmosphere ([34]).
The cytotoxicity of STAP3, STAP4, STAP7, and STAP11 on HUVECs was assessed using MTT assay on manufacturer's instructions ([34]). In brief, HUVECs received the incubation in 96-well plates at a density of 0.8 × 10^4 cells per well with 180 μl completed DMEM. Following the confluence of 50–60% in the 96-well plates, cells were treated with 20 μl peptides under-designed concentrations (100, 200, and 400 μM) and further cultured for 24 h at 37°C. Subsequently, cells were added with 20 μL MTT solutions (5 mg/mL) and incubated for 4 h. Finally, DMSO was added into each well and the absorbance (A) at 490 nm was determined. The cell viability was calculated as:
Cell viability(% of blank control)=(Aexperiment group/Acontrol group)×100.

HUVECs [3] = test: ET-1 secretion of HUVECs; assay type: cell-based, human; conditions: NE 0.5 μM, 24 h, mean ± SD
Protocol: The NO and ET-1 contents of HUVECs were determined after a 24 h treatment of ACEi peptides (STAP3, STAP4, STAP7, and STAP11, respectively) ([34]). HUVECs received the plating process in 6-well plates and the treating process with Cap (1 μM), NE (0.5 μM), designed concentrations of ACEi peptides (100, 200, and 400 μM) for 24 h, or treated with both NE (0.5 μM) and 200 μM ACEi peptides for 24 h. NO and ET-1 productions in treated cells were obtained by employing human NO and ET-1 assay kits according to the manufacturers' protocol.

[4] = 100, 200 and 400 μM, 24 h, MTT, % of blank control

In the case of “WRKER [ACEi peptide from Antarctic krill]”, the “IC50 (ACEi)” value (ACE; peptides from Antarctic krill) is listed as 3285 µg/mL.

For “MIFPGAGGPEL [ACEi peptide in the AHTPDB database]”, the IC50 (ACE) is given as 30 nM.

Work on C[C@H](CS)C(=O)N1CCC[C@H]1C(=O)O [Cap, captopril] yielded an NO level (HUVECs [1]; Cap 1 μM, positive control) of 65.96 ± 1.83 μmol/gprot.

With CC(C)C[C@H](N)C(=O)N1CCC[C@H]1C(=O)N[C@@H](CCCNC(=N)N)C(=O)N[C@@H](CO)C(=O)O [STAP11, Leu-Pro-Arg-Ser] (H-LPRS-OH) the cell viability (HUVECs [2]; 400 µM, SD) was 91.07 ± 1.36% and the cell viability (HUVECs [2]; [4]) was “no significant influence on the proliferation of HUVECs”.

For CSCC[C@H](N)C(=O)N[C@@H](CCCCN)C(=O)N[C@@H](CCCCN)C(=O)N[C@@H](CO)C(=O)O [STAP7, Met-Lys-Lys-Ser] (H-MKKS-OH), the cell viability (HUVECs [2]; [4]) was “no significant influence on the proliferation of HUVECs”.

In the case of “LGPLGHQ [ACEi peptide from skate (Okamejei kenojei)]”, the “IC50 (ACEi)” value (ACE; peptides from Okamejei kenojei) is listed as 3490 µg/mL and the “IC50 (ACEi)” value (ACE; peptides from skate) is listed as 4220 µg/mL.

Work on NC[C@H](O)c1ccc(O)c(O)c1 [NE, norepinephrine] yielded an NO level (HUVECs [1]; NE 0.5 μM) of 24.25 ± 0.63 μmol/gprot and an ET-1 secretion (HUVECs [3]) of 140.23 ± 5.81 pg/mL.

In the case of “RYRP [ACEi peptide from protein hydrolysate of Saurida elongate]”, the “IC50 (ACEi)” value (ACE; peptide from Saurida elongate) is given as 3350 µg/mL.

For EVLIQ [ACEi peptide from stone fish], the “IC50 (ACEi)” value (ACE; peptides from stone fish) is listed as 1440 µg/mL.

In the case of “VFPS [ACEi peptide in the AHTPDB database]”, the IC50 (ACE) is listed as 460 nM.

In the case of “PYVRYL [ACEi peptide in the AHTPDB database]”, the IC50 (ACE) is given as 1900 nM.

In the case of CSCC[C@H](N)C(=O)N[C@@H](CCC(=O)O)C(=O)N[C@@H](CCCCN)C(=O)N[C@@H](CO)C(=O)O [STAP4, Met-Glu-Lys-Ser] (H-MEKS-OH), the cell viability (HUVECs [2]; [4]) is reported as “no significant influence on the proliferation of HUVECs”.

In the case of “IRWCT [ACEi peptide in the AHTPDB database]”, the IC50 (ACE) is given as 1000 nM.

For LAPPTM [ACEi peptide from stone fish], the “IC50 (ACEi)” value (ACE; peptides from stone fish) is listed as 1310 µg/mL.

In the case of EHPVL [ACEi peptide from stone fish], the “IC50 (ACEi)” value (ACE; peptides from stone fish) is given as 1680 µg/mL.

With C[C@@H](O)[C@H](N)C(=O)N[C@@H](CCC(=O)O)C(=O)O [STAP1, Thr-Glu] (H-Thr-Glu-OH) the cell viability (HUVECs [2]; 100 µM, SD) was 108.52 ± 5.19%.

In the case of “MVGSAPGVL [ACEi peptide from skate (Okamejei kenojei)]”, the “IC50 (ACEi)” value (ACE; peptides from Okamejei kenojei) is given as 3090 µg/mL and the “IC50 (ACEi)” value (ACE; peptides from skate) is given as 3090 µg/mL.
